According to US8791132B2, “Compounds and methods for treatment of hypertension” (Medivation Technologies, Inc., priority 2011, dated 2014):
Where “and” joins values, the source holds several entries; their conditions need not be identical. Identical values can stand only once. Like-named read-outs stand apart in the source and are kept apart here.

Columns and labels:
[1] = target: T1, human recombinant adrenergic α2B receptor (Homo sapiens, UniProt P18089); experiment: Radioligand binding, adrenergic α2B ([3H]Rauwolscine); settings: for Ki: read-out: Ki α2B
T1 construct: expressed in transfected cells; host or cells: CHO-K1
T1 sequence (P18089 1-450): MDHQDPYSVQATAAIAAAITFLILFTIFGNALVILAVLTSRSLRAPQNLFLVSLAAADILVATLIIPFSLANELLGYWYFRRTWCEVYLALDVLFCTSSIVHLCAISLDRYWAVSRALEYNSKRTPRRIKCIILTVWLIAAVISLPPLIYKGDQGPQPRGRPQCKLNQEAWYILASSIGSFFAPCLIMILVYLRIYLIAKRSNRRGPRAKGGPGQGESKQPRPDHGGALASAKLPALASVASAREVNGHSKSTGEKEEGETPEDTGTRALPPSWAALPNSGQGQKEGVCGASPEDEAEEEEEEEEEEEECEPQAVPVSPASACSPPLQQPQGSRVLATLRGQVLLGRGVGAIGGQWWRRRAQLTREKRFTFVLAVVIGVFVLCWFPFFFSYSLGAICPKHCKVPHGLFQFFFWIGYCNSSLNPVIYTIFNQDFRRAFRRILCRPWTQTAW
Description: To evaluate in radioligand binding assays the activity of compounds of the invention, human recombinant adrenergic α2B receptor expressed in Chinese hamster ovary (CHO) K1 cells (Uhlen, S. et al, Eur. J. Pharmacol. 343(1):93, 1998) in a modified Tris-HCl buffer (50 mM Tris-HCl, pH 7.4, 12.5 mM MgCl2, 1 mM EDTA, 0.2% BSA) was used. Compounds of the invention were incubated with 2.5 nM [3H]Rauwolscine for 60 min at 25° C. Non-specific binding was estimated in the presence of 10 μM Prazosin. Receptor proteins were filtered and washed, the filters were then counted to determine [3H]Rauwolscine specifically bound. […] Compounds of the invention were tested in this biochemical assay and percent inhibition of specific binding was determined. Biochemical assay results are presented as the percent inhibition of specific binding in Table B1.

[2] = target: T2, human recombinant adrenergic α2A receptor (Homo sapiens, UniProt P08913); experiment: Radioligand binding, adrenergic α2A ([3H]MK-912); settings: for Percentage inhibition of ligand binding, Adrenergic α2A (0.1 μM): repeat datapoints each shown; for inhibition at 0.1 µM: read-out: Percentage inhibition of ligand binding, Adrenergic α2A
T2 construct: expressed in transfected cells; host or cells: insect Sf9 cells
T2 sequence (P08913 1-465): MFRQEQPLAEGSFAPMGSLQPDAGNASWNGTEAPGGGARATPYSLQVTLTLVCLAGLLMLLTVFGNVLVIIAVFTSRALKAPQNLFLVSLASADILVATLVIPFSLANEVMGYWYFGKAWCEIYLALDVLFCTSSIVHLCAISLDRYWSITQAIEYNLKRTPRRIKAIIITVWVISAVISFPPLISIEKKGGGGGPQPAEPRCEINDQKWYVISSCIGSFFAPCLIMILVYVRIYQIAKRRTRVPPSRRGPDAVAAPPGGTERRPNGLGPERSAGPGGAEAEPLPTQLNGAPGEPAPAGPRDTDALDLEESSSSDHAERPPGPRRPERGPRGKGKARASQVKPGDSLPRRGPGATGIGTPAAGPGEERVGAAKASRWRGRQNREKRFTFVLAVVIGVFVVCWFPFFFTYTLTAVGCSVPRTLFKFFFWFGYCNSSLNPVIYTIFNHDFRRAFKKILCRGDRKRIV
Description: To evaluate in radioligand binding assays the activity of compounds of the invention, human recombinant adrenergic α2A receptor expressed in insect Sf9 cells (Uhlen, S. et al, J. Pharmacol. Exp. Ther. 271:1558, 1994) in a modified Tris-HCl buffer (50 mM Tris-HCl, pH 7.4, 12.5 mM MgCl2, 2 mM EDTA) was used. Compounds of invention were incubated with 1 nM [^3H]MK-912 for 60 min at 25° C. MK912 is (2S-trans)-1,3,4,5′,6,6′,7,12b-octahydro-1′,3′-dimethyl-spiro[2H-benzofuro[2,3-a]quinolizine-2,4′(1′H)-pyrimidin]-2′(3′H)-one hydrochloride. Non-specific binding was estimated in the presence of 10 μM WB-4101 (2-(2,6-Dimethoxyphenoxyethyl)aminomethyl-1,4-benzodioxane hydrochloride). Receptor proteins were filtered and washed, the filters were then counted to determine [^3H]MK-912 specifically bound. […] Compounds of the invention were tested in this biochemical assay and percent inhibition of specific binding was determined. Biochemical assay results are presented as the percent inhibition of specific binding in Table B1.

[3] = target: T3, rat adrenergic α1B receptor (Rattus norvegicus, UniProt P15823); experiment: Radioligand binding, adrenergic α1B ([3H]Prazosin); settings: for Percentage inhibition of ligand binding, Adrenergic α1B (0.1 μM): repeat datapoints each shown; for inhibition at 0.03 µM: compound at 0.03 μM; for inhibition at 0.03 µM / inhibition at 0.1 µM: read-out: Percentage inhibition of ligand binding, Adrenergic α1B
T3 construct: rat adrenergic α1B receptor obtained from Wistar Rat liver; from tissue; host or cells: Wistar rat liver
T3 sequence (P15823 1-515): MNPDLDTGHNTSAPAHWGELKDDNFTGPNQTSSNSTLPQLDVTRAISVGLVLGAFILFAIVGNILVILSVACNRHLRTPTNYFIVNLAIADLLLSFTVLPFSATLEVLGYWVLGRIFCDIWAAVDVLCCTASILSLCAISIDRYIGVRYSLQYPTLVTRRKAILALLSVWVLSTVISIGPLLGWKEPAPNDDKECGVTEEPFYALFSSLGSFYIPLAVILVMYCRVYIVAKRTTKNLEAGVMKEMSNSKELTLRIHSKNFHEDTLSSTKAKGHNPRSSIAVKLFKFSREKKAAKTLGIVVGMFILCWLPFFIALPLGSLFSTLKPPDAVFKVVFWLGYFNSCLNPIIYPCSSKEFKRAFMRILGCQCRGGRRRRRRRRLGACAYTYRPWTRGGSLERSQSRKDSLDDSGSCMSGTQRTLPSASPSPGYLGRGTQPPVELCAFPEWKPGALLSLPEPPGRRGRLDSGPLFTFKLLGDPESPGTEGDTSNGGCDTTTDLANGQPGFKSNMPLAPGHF
Description: To evaluate in radioligand binding assays the activity of compounds of the invention, rat adrenergic α1B receptor obtained from Wistar Rat liver (Garcia-S'ainz, J. et al, Biochem. Biophys. Res. Commun. 186:760, 1992; Michel, A. et al, Br. J. Pharmacol. 98:883, 1989) in a modified Tris-HCl buffer (50 mM Tris-HCl buffer, pH 7.4, 0.5 mM EDTA) was used. Compounds of the invention were incubated with 0.25 nM [^3H]Prazosin for 60 min at 25° C. Non-specific binding was estimated in the presence of 10 μM phentolamine. Receptor proteins were filtered and washed, the filters were then counted to determine [^3H]Prazosin specifically bound. […] Compounds of the invention were tested in this biochemical assay and percent inhibition of specific binding was determined. Biochemical assay results are presented as the percent inhibition of specific binding in Table B1.

[4] = compound at 0.03 μM, [3H]Rauwolscine, repeat assays, each datapoint shown, 0.03 µM
[5] = compound at 0.1 μM, [3H]MK-912, repeat assays, each datapoint shown, 0.1 µM
[6] = compound at 0.1 μM, [3H]Prazosin, repeat assays, each datapoint shown, 0.1 µM
[7] = compound at 0.1 μM, [3H]Rauwolscine, repeat assays, each datapoint shown, read-out: Percentage inhibition of ligand binding, Adrenergic α2B
[8] = compound at 0.1 μM, [3H]MK-912, repeat assays, each datapoint shown
[9] = [3H]Prazosin, repeat assays, each datapoint shown
[10] = compound at 0.1 μM, [3H]Prazosin, repeat assays, each datapoint shown

| Percentage inhibition of ligand binding, Adrenergic α2B [1, 4] | Percentage inhibition of ligand binding, Adrenergic α2A [2, 5] | Percentage inhibition of ligand binding, Adrenergic α1B [3, 6] | also measured | Structure (SMILES) |
| --- | --- | --- | --- | --- |
| 77% | 11% | 61% | – | Cc1ccc2c(c1)c1c(n2CC(O)c2ccncc2)CC2CCCCN2C1 (racemic) [75a] |
| 43% | 5% | 16% | – | Cc1ccc2c(c1)c1c(n2CC(O)c2ccncc2)CC2CCCCN2C1 (racemic) [75b] |
| 11% | −2% | 59% | – | Cc1ccc2c(c1)c1c(n2CC(O)c2ccncc2)CC2CCCCN2C1 (racemic) [75c] |
| 102% | 49% | 26% | – | Cc1ccc2c(c1)c1c(n2CC(O)c2ccncc2)CC2CCCCN2C1 (racemic) [75d] |
| – | – | – | Percentage inhibition of ligand binding, Adrenergic α2B (0.03 μM) ([1]; compound at 0.03 μM, [3H]Rauwolscine, repeat datapoints each shown, 0.03 µM): 102%; Percentage inhibition of ligand binding, Adrenergic α2A (0.1 μM) ([2]; compound at 0.1 μM, [3H]MK-912, 0.1 µM): 29%; Percentage inhibition of ligand binding, Adrenergic α1B (0.1 μM) ([3]; compound at 0.1 μM, [3H]Prazosin, 0.1 µM): 57% | Cc1ccc2c(c1)c1c(n2CC(N=[N+]=[N-])c2ccncc2)CCN(C)C1 (racemic) [V-1b, 5-(2-azido-2-(pyridin-4-yl)ethyl)-2,3,4,5-tetrahydro-2,8-dimethyl-1H-pyrido[4,3-b]indole] |
| 26% and 30% | – | – | inhibition at 0.1 µM [1, 7]: 62%; Ki [1]: 0.0274 µM; inhibition at 0.1 µM [2, 8]: 16%; inhibition at 0.03 µM [3, 9]: 18% | Cc1ccc2c(c1)c1c(n2CC(O)c2ccncc2)CCN(C)C1 (single isomer, unassigned) [3a] |
| 46% | 7% | 58% | – | CN1CCc2c(c3cc(Cl)ccc3n2CC(O)c2ccncc2)C1 (single isomer, unassigned) [4b] |
| 29% and 38% | 0% | – | Percentage inhibition of ligand binding, Adrenergic α2B ([1]; compound at 0.1 μM, [3H]Rauwolscine, repeat assays, each datapoint shown, 0.1 µM): 57%; Ki [1]: 0.035 µM; inhibition at 0.1 µM [3, 10]: 18% | Cc1ccc2c(c1)c1c(n2CC(C)(O)c2cccnc2)CCN(C)C1 (single isomer, unassigned) [5a, 1-(1,2,3,4-tetrahydro-2,8-dimethylpyrido[4,3-b]indol-5-yl)-2-(pyridin-3-yl)propan-2-ol] |
| 59% | 1% | 28% | – | CN1CCc2c(c3cc(Cl)ccc3n2CC(O)c2cccnc2)C1 (single isomer, unassigned) [7a] |
| 74% | 25% | 37% | – | CN1CCc2c(c3cc(Cl)ccc3n2CC(O)c2cccnc2)C1 (single isomer, unassigned) [7b] |
| – | 12% | 63% | inhibition at 0.03 µM ([1]; compound at 0.03 μM, [3H]Rauwolscine, repeat assays, each datapoint shown, read-out: Percentage inhibition of ligand binding, Adrenergic α2B): 49%; inhibition at 0.1 µM [1, 7]: 78%; Ki [1]: 0.0117 µM; Ki [2]: 2.1 µM; inhibition at 0.1 µM [2, 8]: 8%; inhibition at 0.03 µM [3, 9]: 24%; inhibition at 0.1 µM [3, 10]: 61% | Cc1ccc2c(c1)c1c(n2CC(O)c2ccncc2)CN(C)CC1 (single isomer, unassigned) [8b] |
| 23% | 4% | 11% | – | Cc1ccc2c(c1)c1c(n2CC(O)c2cccnc2)CCNC1 (single isomer, unassigned) [9a, 2-(8-methyl-1,2,3,4-tetrahydro-pyrido[4,3-b]indol-5-yl)-1-pyridin-3-yl-ethanol] |
| – | – | – | inhibition at 0.1 µM ([2]; 0.1 μM compound): 12%; Percentage inhibition of ligand binding, Adrenergic α1B ([3]; 0.1 μM compound): 33% | Cc1ccc2c(c1)c1c(n2C(C)C(O)c2ccncc2)CCN(C)C1 (stereo not shown) [II-98a] |
| – | – | – | Percentage inhibition of ligand binding, Adrenergic α2A (0.1 μM) ([2]; compound at 0.1 μM, [3H]MK-912): 6%; Percentage inhibition of ligand binding, Adrenergic α1B (0.1 μM) ([3]; compound at 0.1 μM, [3H]Prazosin): 65% | Cc1ccc2c(c1)c1c(n2CC(C)(O)c2ccncc2)CCN(C)CC1 (stereo not shown) [II-134b] |
| – | – | – | inhibition at 0.1 µM [2, 8]: 23%; inhibition at 0.1 µM [3, 10]: 58% | Cc1ccc2c(c1)c1c(n2CC(O)c2ccncc2)CN(C)CC1 (stereo not shown) [compound 8] |
